According to US20240368132A1, “ROCK2 INHIBITORS AND USES THEREOF” (President and Fellows of Harvard College, priority 2021, published 2024):

What was measured:
ROCK2 = target: T1, ROCK2 (Homo sapiens, UniProt O75116); test: ROCK2 kinase assay (Reaction Biology Hot Spot kinase assay); format: biochemical; settings: purified kinase, 33P-ATP (10 μM), P81 filter-binding method
T1 construct: purchased Reaction Biology
Procedure: (§1) ROCK2 and ROCK] kinase assays
(§2) ROCK2 and ROCK1 enzyme potencies were determined by Reaction Biology (www.reactionbiology.com) using their Hot Spot kinase Assay. The base reaction buffer for the assay was 20 mM Hepes (pH 7.5), 10 mM MgCl2, 1 mM EGTA, 0.01% Brij35, 0.02 mg/mL BSA, 0.1 mM Na3VO4, and 2 mM DTT with a 1% DMSO concentration. Required cofactors were added individually to each kinase reaction. The substrate was freshly prepared in the reaction buffer described above, and then cofactors were delivered. The purified kinase was added to the substrate solution and then gently mixed. Compounds were added from 100% DMSO into the kinase reaction mixture by Acoustic technology (Echo550; nanoliter range) and then incubated for 20 min at room temperature. ^33P-ATP (10 μM) was delivered to initiate the reaction, and then the mixture was incubated again for two hours at room temperature. […] Nat. Biotechnol. 2011 Oct. 30; 29(11):1039-45. doi: 10.1038/nbt.2017.
(§3) The compounds were categorized based on IC50 value as “+”, “++”, “+++”, and “++++”. The category “+” refers to compounds with ROCK IC50 value of >10 μM. The category “++” refers to compounds with a ROCK IC50 value of 10 to 3 μM. The category “+++” refers to compounds with ROCK IC50 value of 3 to 0.3 μM. The category “++++” refers to compounds with a ROCK IC50 value of <0.3 μM. “ND” refers to “not determined.” The compound of an “Example Number” is the final product of an Example entitled the Example Number.

ROCK1 = target: T2, ROCK1 (Homo sapiens, UniProt Q13464); test: ROCK1 kinase assay (Reaction Biology Hot Spot kinase assay); format: biochemical; settings: purified kinase, 33P-ATP (10 μM), P81 filter-binding method
T2 construct: purchased Reaction Biology
Procedure: as §1, §2, §3

T2 sequence (Q13464 whole entry): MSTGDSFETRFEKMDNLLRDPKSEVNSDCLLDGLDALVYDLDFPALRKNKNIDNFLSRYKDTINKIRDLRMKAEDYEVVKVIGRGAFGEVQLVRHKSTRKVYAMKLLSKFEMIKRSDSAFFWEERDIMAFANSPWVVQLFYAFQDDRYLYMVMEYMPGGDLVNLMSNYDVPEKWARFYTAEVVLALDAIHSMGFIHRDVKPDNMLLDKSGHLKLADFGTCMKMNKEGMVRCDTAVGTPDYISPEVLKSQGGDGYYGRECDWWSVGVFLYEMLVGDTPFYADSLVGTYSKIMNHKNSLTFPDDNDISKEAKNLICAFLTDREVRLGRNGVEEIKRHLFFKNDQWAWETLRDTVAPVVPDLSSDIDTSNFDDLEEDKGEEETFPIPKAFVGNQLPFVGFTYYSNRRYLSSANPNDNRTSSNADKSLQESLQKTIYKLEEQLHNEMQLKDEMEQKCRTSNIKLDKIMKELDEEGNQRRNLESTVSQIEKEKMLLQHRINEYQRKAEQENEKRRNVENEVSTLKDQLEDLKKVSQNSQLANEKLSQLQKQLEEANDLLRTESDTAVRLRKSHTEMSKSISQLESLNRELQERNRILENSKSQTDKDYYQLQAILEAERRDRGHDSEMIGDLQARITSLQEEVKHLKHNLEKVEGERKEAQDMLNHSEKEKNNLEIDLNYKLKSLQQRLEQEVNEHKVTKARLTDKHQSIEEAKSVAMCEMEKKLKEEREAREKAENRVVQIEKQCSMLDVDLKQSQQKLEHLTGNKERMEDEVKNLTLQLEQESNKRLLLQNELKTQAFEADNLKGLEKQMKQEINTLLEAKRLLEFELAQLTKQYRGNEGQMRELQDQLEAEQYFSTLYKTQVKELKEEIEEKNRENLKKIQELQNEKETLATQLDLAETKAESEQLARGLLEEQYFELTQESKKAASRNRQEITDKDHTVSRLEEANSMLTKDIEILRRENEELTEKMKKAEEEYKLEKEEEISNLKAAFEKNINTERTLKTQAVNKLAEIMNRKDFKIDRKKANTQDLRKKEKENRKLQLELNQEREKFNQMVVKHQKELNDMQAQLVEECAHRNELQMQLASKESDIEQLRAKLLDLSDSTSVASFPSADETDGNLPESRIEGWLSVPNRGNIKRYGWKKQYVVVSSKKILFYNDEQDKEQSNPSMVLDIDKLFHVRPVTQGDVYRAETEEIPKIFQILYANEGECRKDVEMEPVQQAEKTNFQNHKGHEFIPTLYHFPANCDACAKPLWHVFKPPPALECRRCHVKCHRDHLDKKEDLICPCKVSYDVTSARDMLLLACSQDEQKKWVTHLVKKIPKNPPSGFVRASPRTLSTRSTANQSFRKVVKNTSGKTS
T1 sequence (O75116 whole entry): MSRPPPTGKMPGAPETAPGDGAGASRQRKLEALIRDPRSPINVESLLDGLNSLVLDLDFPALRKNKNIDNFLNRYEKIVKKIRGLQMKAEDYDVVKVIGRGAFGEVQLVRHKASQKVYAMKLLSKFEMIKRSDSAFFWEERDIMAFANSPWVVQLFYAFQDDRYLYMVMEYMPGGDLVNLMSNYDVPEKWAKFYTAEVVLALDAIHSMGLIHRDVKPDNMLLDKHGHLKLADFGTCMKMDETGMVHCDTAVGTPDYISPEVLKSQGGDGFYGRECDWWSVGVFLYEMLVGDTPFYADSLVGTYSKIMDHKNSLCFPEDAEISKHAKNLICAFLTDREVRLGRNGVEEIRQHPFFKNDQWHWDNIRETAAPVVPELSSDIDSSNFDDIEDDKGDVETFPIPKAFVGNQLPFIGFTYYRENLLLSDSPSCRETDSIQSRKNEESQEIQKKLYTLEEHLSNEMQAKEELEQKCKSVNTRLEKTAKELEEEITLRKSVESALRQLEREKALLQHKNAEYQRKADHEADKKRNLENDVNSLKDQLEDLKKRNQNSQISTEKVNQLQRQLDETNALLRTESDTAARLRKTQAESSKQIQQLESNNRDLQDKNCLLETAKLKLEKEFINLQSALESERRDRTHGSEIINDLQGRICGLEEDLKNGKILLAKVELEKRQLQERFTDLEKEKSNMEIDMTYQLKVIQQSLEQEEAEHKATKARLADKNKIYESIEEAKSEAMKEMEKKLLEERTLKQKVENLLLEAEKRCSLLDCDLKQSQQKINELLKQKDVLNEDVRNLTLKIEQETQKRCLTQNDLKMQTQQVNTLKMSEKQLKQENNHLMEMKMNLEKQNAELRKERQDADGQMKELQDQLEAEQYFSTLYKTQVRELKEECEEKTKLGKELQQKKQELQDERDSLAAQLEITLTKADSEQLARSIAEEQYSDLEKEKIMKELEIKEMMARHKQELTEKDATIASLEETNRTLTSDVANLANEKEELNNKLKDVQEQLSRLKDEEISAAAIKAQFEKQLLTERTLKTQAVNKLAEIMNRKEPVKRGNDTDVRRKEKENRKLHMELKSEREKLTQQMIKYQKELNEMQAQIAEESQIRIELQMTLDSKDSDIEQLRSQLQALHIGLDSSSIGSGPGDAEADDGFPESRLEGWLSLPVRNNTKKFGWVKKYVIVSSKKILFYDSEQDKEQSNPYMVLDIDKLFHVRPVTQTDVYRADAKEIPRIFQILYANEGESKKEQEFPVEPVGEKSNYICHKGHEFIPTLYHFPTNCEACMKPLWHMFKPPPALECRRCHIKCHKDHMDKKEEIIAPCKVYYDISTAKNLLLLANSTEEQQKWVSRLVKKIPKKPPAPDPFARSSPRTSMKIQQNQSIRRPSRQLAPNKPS

| ROCK2 IC50 (ROCK2) | IC50 (ROCK1) [nM] | IC50 (ROCK2) [nM] | SMILES |
| --- | --- | --- | --- |
| + + | > 10000 |  | Cc1cn(-c2ccc3c(c2)CCN(C(=O)C(C)C)C3)nc1Nc1ccc2[nH]ncc2c1Cl [Example 80, 1-[6-[3-[(4-chloro-1H-indazol-5-yl)amino]-4-methyl-pyrazol-1-yl]-3,4-dihydro-1H-isoquinolin-2-yl]-2-methyl-propan-1-one] |
|  | 3000 to 10000 | < 300 | Cn1cc(C(=O)Nc2cc(-n3nc(Nc4ccc5[nH]ncc5c4Cl)c4ccccc43)ccn2)cn1 [Example 53, N-(4-(3-((4-chloro-1H-indazol-5-yl)amino)-1H-indazol-1-yl)pyridin-2-yl)-1-methyl-1H-pyrazole-4-carboxamide] |
|  | > 10000 | > 10000 | Cn1cc(-c2nc3cc(-n4nc(Nc5ccc6[nH]ncc6c5Cl)c5ccccc54)ccc3o2)cn1 [Example 66] |
|  | > 10000 | > 10000 | Cn1cc(C(=O)Nc2ccnc(-n3nc(Nc4ccc5[nH]ncc5c4Cl)c4ccccc43)c2)cn1 [Example 47] |
|  | < 300 | < 300 | Cn1cc(C(=O)Nc2cc(-c3nnc(Nc4ccc5[nH]ncc5c4Cl)o3)cn(C)c2=O)cn1 [Example 67, N-[5-[5-[(4-chloro-1H-indazol-5-yl)amino]-1,3,4-oxadiazol-2-yl]-1-methyl-2-oxo-3-pyridyl]-1-methyl-pyrazole-4-carboxamide] |
|  | < 300 | < 300 | Cn1cc(C(=O)Nc2cccc(-n3nc(Nc4ccc5[nH]ncc5c4Cl)c4ccccc43)n2)cn1 [Example 46] |
|  | < 300 | < 300 | Cn1cc(C(=O)Nc2cc(-n3nc(Nc4ccc5[nH]ncc5c4Cl)c4ccccc43)ccc2F)cn1 [Example 57, N-(5-(3-((4-chloro-1H-indazol-5-yl)amino)-1H-indazol-1-yl)-2-fluorophenyl)-1-methyl-1H-pyrazole-4-carboxamide] |
|  | 300 to 3000 | < 300 | Cn1cc(C(=O)Nc2cccc(-n3nc(Nc4ccc5[nH]ncc5c4Cl)c4ncccc43)c2)cn1 [Example 56, N-(3-(3-((4-chloro-1H-indazol-5-yl)amino)-1H-pyrazolo[4,3-b]pyridin-1-yl)phenyl)-1-methyl-1H-pyrazole-4-carboxamide] |
|  | < 300 | < 300 | Cn1cc(C(=O)Nc2cccc(-c3nnc(Nc4ccc5[nH]ncc5c4)o3)c2)cn1 [Example 36] |
|  | > 10000 | < 300 | O=C(Nc1cccc(-n2nc(Nc3ccc4[nH]ncc4c3Cl)c3ccccc32)c1)c1cccnc1 [Example 32] |
|  | 3000 to 10000 | 300 to 3000 | O=C(Cc1ncc[nH]1)Nc1cccc(-n2nc(Nc3ccc4[nH]ncc4c3)c3ccccc32)c1 [Example 27] |
|  | 3000 to 10000 | 300 to 3000 | Cn1cc(C(=O)Nc2cccc(-n3ccc(Nc4ccc5[nH]ncc5c4)n3)c2)cn1 [Example 1, N-(3-(3-((1H-indazol-5-yl)amino)-1H-pyrazol-1-yl)phenyl)-1-methyl-1H-pyrazole-4-carboxamide] |
|  | 300 to 3000 | < 300 | COc1cc(-c2nnc(Nc3ccc4[nH]ncc4c3Cl)o2)ccc1OCC(=O)NC(C)C [Example 72, 2-[4-[5-[(4-chloro-1H-indazol-5-yl)amino]-1,3,4-oxadiazol-2-yl]-2-methoxy-phenoxy]-N-isopropyl-acetamide] |
|  | 300 to 3000 | < 300 | COc1cc(-n2cc(C)c(Nc3ccc4[nH]ncc4c3Cl)n2)ccc1C(=O)NC1CCCC1 [Example 87] |
|  | 300 to 3000 | < 300 | O=C(Nc1cccc(-c2nc(Nc3ccc4[nH]ncc4c3)no2)c1)c1cccnc1 [Example 41] |
|  | > 10000 | > 10000 | COC(=O)CN1CCOc2cc(-n3cc(C)c(Nc4ccc5[nH]ncc5c4Cl)n3)ccc21 [Example 76, methyl 2-[7-[3-[(4-chloro-1H-indazol-5-yl)amino]-4-methyl-pyrazol-1-yl]-2,3-dihydro-1,4-benzoxazin-4-yl]acetate] |
|  | 3000 to 10000 | < 300 | Cc1cn(-c2ccc3c(c2)CCN(C(=O)C2CC2)C3)nc1Nc1ccc2[nH]ncc2c1Cl [Example 79, [6-[3-[(4-chloro-1H-indazol-5-yl)amino]-4-methyl-pyrazol-1-yl]-3,4-dihydro-1H-isoquinolin-2-yl]-cyclopropyl-methanone] |

| ROCK2 IC50 (ROCK2) | IC50 (ROCK1) [nM] | IC50 (ROCK2) [nM] | SMILES |
| --- | --- | --- | --- |
|  | < 300 | < 300 | Cn1cc(-n2nc(Nc3ccc4[nH]ncc4c3Cl)c3ccccc32)cc(NC(=O)c2ccccc2F)c1=O [Example 68, N-(5-(3-((4-chloro-1H-indazol-5-yl)amino)-1H-indazol-1-yl)-1-methyl-2-oxo-1,2-dihydropyridin-3-yl)-2-fluorobenzamide] |
|  | > 10000 | < 300 | COc1cc(-n2cc(C)c(Nc3ccc4[nH]ncc4c3Cl)n2)ccc1C(=O)NCC(F)(F)F [Example 88] |
|  | 3000 to 10000 | < 300 | Cc1cn(-c2ccc3c(c2)CCN(CC(C)C)C3=O)nc1Nc1ccc2[nH]ncc2c1Cl [Example 84, 6-[3-[(4-chloro-1H-indazol-5-yl)amino]-4-methyl-pyrazol-1-yl]-2-isobutyl-3,4-dihydroisoquinolin-1-one] |
|  | < 300 | < 300 | Clc1c(Nc2nnc(-c3cccc(-c4ncco4)c3)o2)ccc2[nH]ncc12 [Example 50, N-(4-chloro-1H-indazol-5-yl)-5-(3-(oxazol-2-yl)phenyl)-1,3,4-oxadiazol-2-amine] |
|  | > 10000 | < 300 | Cc1cn(-c2ccc3c(c2)CCN(S(=O)(=O)C2CC2)C3)nc1Nc1ccc2[nH]ncc2c1Cl [Example 82] |
|  | < 300 | < 300 | Cn1cc(C(=O)Nc2cccc(-n3nc(Nc4ccc5[nH]ncc5c4Cl)c4cnccc43)c2)cn1 [Example 58] |
|  | 3000 to 10000 | 300 to 3000 | Cn1cc(C(=O)Nc2cccc(-n3nc(Nc4ccc5[nH]ncc5c4)c4ccccc43)c2)cn1 [Example 21] |
|  | 300 to 3000 | < 300 | COc1cc(-n2nc(Nc3ccc4[nH]ncc4c3)c3ccccc32)ccc1OCC(=O)NC(C)C [Example 17] |
|  | 300 to 3000 | < 300 | Cc1cc(Nc2ccc3[nH]ncc3c2)nn1-c1cccc(NC(=O)c2c[nH]cn2)c1 [Example 5, N-(3-(3-((1H-indazol-5-yl)amino)-5-methyl-1H-pyrazol-1-yl)phenyl)-1H-imidazole-4-carboxamide] |
|  | < 300 | < 300 | Cn1cc(C(=O)Nc2cccc(-c3nnc(Nc4ccc5[nH]ncc5c4Cl)o3)c2)cn1 [Example 55, N-(3-(5-((4-chloro-1H-indazol-5-yl)amino)-1,3,4-oxadiazol-2-yl)phenyl)-1-methyl-1H-pyrazole-4-carboxamide] |
|  | 300 to 3000 | < 300 | O=C(Nc1cccc(-c2nc(Nc3ccc4[nH]ncc4c3Cl)no2)c1)c1ccccc1F [Example 64] |
|  | > 10000 | > 10000 | Cc1cn(-c2ccc3c(c2)CCN(C(=O)C2CCCC2)C3)nc1Nc1ccc2[nH]ncc2c1Cl [Example 81] |
|  | 3000 to 10000 | 300 to 3000 | O=C(Nc1cccc(-n2nc(Nc3ccc4[nH]ncc4c3)c3ccccc32)c1)c1c[nH]cn1 [Example 22] |
|  | 300 to 3000 | 300 to 3000 | COc1cc(-n2nc(C(F)(F)F)cc2Nc2ccc3[nH]ncc3c2Cl)ccc1OCC(=O)NC(C)C [Example 70, 2-(4-(5-((4-chloro-1H-indazol-5-yl)amino)-3-(trifluoromethyl)-1H-pyrazol-1-yl)-2-methoxyphenoxy)—N-isopropylacetamide] |
|  | 300 to 3000 | 300 to 3000 | O=C(Nc1cccc(-n2ccc(Nc3ccc4[nH]ncc4c3)n2)c1)c1cccnc1 [Example 6] |
|  | 300 to 3000 | < 300 | COc1cc(-n2ccc(Nc3ccc4[nH]ncc4c3Cl)n2)ccc1OCC(=O)NC(C)C [Example 12] |
|  | < 300 | < 300 | Cn1cc(C(=O)Nc2cccc(-n3nc(Nc4ccc5[nH]ncc5c4)c4ccccc43)n2)cn1 [Example 45, N-(6-(3-((1H-indazol-5-yl)amino)-1H-indazol-1-yl)pyridin-2-yl)-1-methyl-1H-pyrazole-4-carboxamide] |
